These results are taken from patent US8778966B2, “Quinolinone derivatives as PARP and tank inhibitors” (Janssen Pharmaceutica, NV, priority 2007, dated 2014).

One assay deals with HCT116 cells. Briefly: Mitotic arrest assay on HCT116 cells (phospho-histone H3 Ser10). Type of assay: cell-based, human. Particulars: Homo sapiens, HCT-116, HCT116 cells; lowest active dose; read-out: Mitotic arrest HCT116 LAD (converted). The gist of the method: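 Seeded overnight, then compound-treated 6 h at 37 °C (≤0.1% DMSO); fixed, stained with Alexa Fluor 488 anti-phospho-H3 (Ser10) plus Hoechst 33342, imaged on InCell Analyzer 1000. Blank-subtracted signal divided by SD (sigma), triplicate; value is lowest dose giving sigma >5 (LAD).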

The target in a further assay is T1, Human PARP-1 enzyme (Homo sapiens, UniProt P09874).
T1 construct: purchased Trevigen
T1 sequence (P09874 whole entry): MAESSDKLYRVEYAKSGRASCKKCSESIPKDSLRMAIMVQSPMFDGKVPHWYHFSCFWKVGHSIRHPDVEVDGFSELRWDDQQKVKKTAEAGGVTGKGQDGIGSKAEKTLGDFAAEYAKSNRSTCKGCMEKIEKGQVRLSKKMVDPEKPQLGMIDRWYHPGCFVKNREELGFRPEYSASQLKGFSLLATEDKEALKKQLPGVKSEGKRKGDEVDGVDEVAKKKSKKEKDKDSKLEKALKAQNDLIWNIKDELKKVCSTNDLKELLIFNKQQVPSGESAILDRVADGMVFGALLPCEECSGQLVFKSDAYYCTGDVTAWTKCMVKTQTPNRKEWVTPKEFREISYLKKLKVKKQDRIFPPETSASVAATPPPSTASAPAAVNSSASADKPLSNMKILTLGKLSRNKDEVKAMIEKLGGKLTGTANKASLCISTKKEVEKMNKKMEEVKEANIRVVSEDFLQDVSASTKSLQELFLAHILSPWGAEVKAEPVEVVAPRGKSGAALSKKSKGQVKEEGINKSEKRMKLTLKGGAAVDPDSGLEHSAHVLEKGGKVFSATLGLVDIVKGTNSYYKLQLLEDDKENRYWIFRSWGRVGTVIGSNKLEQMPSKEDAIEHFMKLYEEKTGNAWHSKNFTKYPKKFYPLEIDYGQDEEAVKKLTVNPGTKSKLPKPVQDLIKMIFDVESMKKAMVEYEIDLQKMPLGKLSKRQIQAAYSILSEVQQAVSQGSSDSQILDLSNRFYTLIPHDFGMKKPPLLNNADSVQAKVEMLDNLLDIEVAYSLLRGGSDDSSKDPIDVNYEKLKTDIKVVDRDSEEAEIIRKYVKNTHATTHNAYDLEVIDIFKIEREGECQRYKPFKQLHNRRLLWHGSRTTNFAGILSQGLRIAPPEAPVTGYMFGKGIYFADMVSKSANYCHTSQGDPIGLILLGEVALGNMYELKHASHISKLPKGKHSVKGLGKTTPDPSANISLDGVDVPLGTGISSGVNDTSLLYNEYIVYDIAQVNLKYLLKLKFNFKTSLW
Briefly: In vitro Scintillation Proximity Assay (SPA) for PARP-1 inhibitory activity. In kind it is biochemical. Particulars: read-out: in vitro SPA assay PARP-1 pIC50 (converted). The gist of the method:
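SPA assay: nicked-DNA-activated PARP-1 (0.1–0.2 μg/ml) ADP-ribosylates biotinylated histones (2 μg/ml) using [3H]-NAD+, 20 min at RT in Tris pH 8/DTT/MgCl2, stopped with 2 mM NAD+. Blank-subtracted cpm expressed as % control; IC50 by linear interpolation, reported as pIC50 (10−5 to 3×10−9 M tested).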
(Scintillation proximity formats need no separation of bound from free tracer.)

In the case of `CCc1cc2ccc(C(C)(C#N)Cc3cccc(OCCCN4CCNCC4)c3)cc2[nH]c1=O` (centres unmarked) [Compound 25], in the assay with HCT116 cells, the minimal effective concentration is 1 µM. Also, the IC50 on Human PARP-1 enzyme was 1580 nM.

As to `CCc1cc2ccc(C(C#N)(Cc3ccccc3)c3ccc(C#N)cc3)cc2[nH]c1=O` (centres unmarked) [Compound 26], the minimal effective concentration with HCT116 cells was over 10 µM. Further, the IC50 at Human PARP-1 enzyme was 1580 nM.

Turning to `CCc1cc2ccc(C(C#N)(Cc3ccccc3)c3ccccc3)cc2[nH]c1=O` (centres unmarked) [Compound 27], the minimal effective concentration in the assay on HCT116 cells was 3.16 µM. Besides, the IC50 at Human PARP-1 enzyme was 1000 nM.

With `CCc1cc2ccc(C(C#N)(Cc3ccccc3)C3CC3)cc2[nH]c1=O` (centres unmarked) [Compound 29], in the assay with HCT116 cells, the minimal effective concentration was 1 µM. Also, on Human PARP-1 enzyme, the IC50 is 631 nM.

For the compound `CCc1cc2ccc(C(C#N)(Cc3ccccc3)C(C)C)cc2[nH]c1=O` (centres unmarked) [Compound 30], the minimal effective concentration in the assay with HCT116 cells was 3.16 µM. For the same compound, the IC50 at Human PARP-1 enzyme was 3160 nM.

As to `CCCC(C#N)(Cc1ccccc1)c1ccc2cc(CC)c(=O)[nH]c2c1` (centres unmarked) [Compound 31], in the assay with HCT116 cells, the minimal effective concentration was 1 µM. Moreover, the IC50 on Human PARP-1 enzyme is 2000 nM.

In the case of `CCc1cc2ccc(C(C)(C#N)Cc3cccc(-c4ccc[nH]4)c3)cc2[nH]c1=O` (centres unmarked) [Compound 176], the minimal effective concentration with HCT116 cells is 1 µM. In addition, the IC50 at Human PARP-1 enzyme was 50.1 nM.

Consider `CCc1cc2ccc(C(C)(C#N)Cc3cccc(CCS(C)(=O)=O)c3)cc2[nH]c1=O` (centres unmarked) [Compound 178], for which the minimal effective concentration with HCT116 cells is 3 µM. Moreover, the IC50 on Human PARP-1 enzyme was 63.1 nM.

Regarding `Cc1cc2ccc(C(C)(C#N)Cc3cccc(C=Cc4ccccc4)c3)cc2[nH]c1=O` (centres unmarked) [Compound 179], the minimal effective concentration in the assay with HCT116 cells is 1 µM. In addition, the IC50 at Human PARP-1 enzyme was 200 nM.

For the compound `CCc1cc2ccc(C(C)(C#N)Cc3cccc(C(=N)NO)c3)cc2[nH]c1=O` (centres unmarked) [Compound 186], the minimal effective concentration with HCT116 cells is 3 µM. For the same compound, the IC50 at Human PARP-1 enzyme was 39.8 nM.

As to `Cc1cc2ccc(C(C)(C#N)Cc3cccc(Oc4ccc(F)cc4)c3)cc2[nH]c1=O` (centres unmarked) [Compound 192], the minimal effective concentration with HCT116 cells was 0.3 µM. At Human PARP-1 enzyme, the IC50 was 398 nM.

In the case of `CCc1cc2ccc(C(C)(C#N)Cc3cccc(OCCC#N)c3)cc2[nH]c1=O` (centres unmarked) [Compound 195], the minimal effective concentration with HCT116 cells was 0.1 µM. On Human PARP-1 enzyme, the IC50 was 39.8 nM.

As to `C#CCOc1cccc(CC(C)(C#N)c2ccc3cc(CC)c(=O)[nH]c3c2)c1` (centres unmarked) [Compound 196], the minimal effective concentration with HCT116 cells was 0.3 µM. The IC50 at Human PARP-1 enzyme is 25.1 nM.

With `CCc1cc2ccc(C(C)(C#N)Cc3nc(Cl)cc(OC)n3)cc2[nH]c1=O` (centres unmarked) [Compound 202], in the assay on HCT116 cells, the minimal effective concentration is 0.1 µM. In addition, the IC50 on Human PARP-1 enzyme was 79.4 nM.

As for `CCc1cc2ccc(C(C)(C#N)Cc3nc(N(C)C)cc(N(C)C)n3)cc2[nH]c1=O` (centres unmarked) [Compound 205], the minimal effective concentration in the assay on HCT116 cells was 0.3 µM. Moreover, the IC50 at Human PARP-1 enzyme was 79.4 nM.

For `CCc1cc2ccc(C(C)(C#N)Cc3cccc(N4CCC(N(C)C)C4)n3)cc2[nH]c1=O` (centres unmarked) [Compound 209], in the assay with HCT116 cells, the minimal effective concentration is 1 µM. The IC50 on Human PARP-1 enzyme is 50.1 nM.

As for `CCc1cc2ccc(C(C)(C#N)Cc3cccc(C#Cc4cncn4C)n3)cc2[nH]c1=O` (centres unmarked) [Compound 217], the minimal effective concentration in the assay on HCT116 cells is 3 µM. For the same compound, the IC50 on Human PARP-1 enzyme was 79.4 nM.

As to `CCc1cc2ccc(C(C)(C#N)Cc3cccc(N(C)CCc4ccccc4)n3)cc2[nH]c1=O.Cl` (centres unmarked) [Compound 220], in the assay with HCT116 cells, the minimal effective concentration is 3 µM. For the same compound, on Human PARP-1 enzyme, the IC50 was 398 nM.

Consider `CCc1cc2c(OC)cc(C(C)(C#N)Cc3nc(OC)cc(OC)n3)cc2[nH]c1=O` (centres unmarked) [Compound 229], for which the minimal effective concentration with HCT116 cells was 3 µM. Also, the IC50 on Human PARP-1 enzyme was 63.1 nM.

As for `CCc1cc2ccc(C(C)(C#N)CN3CCN(c4ccccn4)CC3)cc2[nH]c1=O` (centres unmarked) [Compound 233], the minimal effective concentration in the assay with HCT116 cells was 1 µM. In addition, the IC50 on Human PARP-1 enzyme is 50.1 nM.

As to `Cc1nc(-c2ccccc2)sc1CC(C)(C#N)c1ccc2cc(C)c(=O)[nH]c2c1` (centres unmarked) [Compound 235], the minimal effective concentration in the assay with HCT116 cells is 0.3 µM. Besides, at Human PARP-1 enzyme, the IC50 was 126 nM.

Regarding `CCc1cc2ccc(C(C)(C#N)Cc3cccc4c3CCN4)cc2[nH]c1=O` (centres unmarked) [Compound 237], the minimal effective concentration in the assay with HCT116 cells is 1 µM. Moreover, the IC50 at Human PARP-1 enzyme was 25.1 nM.

Regarding `CCc1cc2ccc(C(C)(C#N)Cc3cccc(C(=O)OC(C)C)c3)cc2[nH]c1=O` (centres unmarked) [Compound 255], the minimal effective concentration with HCT116 cells was 0.1 µM. Further, the IC50 on Human PARP-1 enzyme is 50.1 nM.

Consider `Cc1cc2ccc(C(C)(C#N)Cc3cccc(I)c3)cc2[nH]c1=O` (centres unmarked) [Compound 256], for which the minimal effective concentration in the assay with HCT116 cells was 0.1 µM. In addition, the IC50 on Human PARP-1 enzyme is 126 nM.

Turning to `CCc1cc2ccc(C(C)(C#N)Cc3cccc(NC)c3)cc2[nH]c1=O` (centres unmarked) [Compound 257], the minimal effective concentration in the assay with HCT116 cells was 0.3 µM. In addition, the IC50 at Human PARP-1 enzyme was 79.4 nM.

Consider `CCc1cc2ccc(C(C)(C#N)Cc3cc(Br)cc(N(C)C)c3)cc2[nH]c1=O` (centres unmarked) [Compound 260], for which, in the assay on HCT116 cells, the minimal effective concentration is 0.1 µM. Further, at Human PARP-1 enzyme, the IC50 was 79.4 nM.

Turning to `Cc1cc2ccc(C(C)(C#N)Cc3cccc(OCC4CCOCC4)c3)cc2[nH]c1=O` (centres unmarked) [Compound 261], in the assay on HCT116 cells, the minimal effective concentration was 1 µM. The IC50 at Human PARP-1 enzyme is 100 nM.

As to `CCc1cc2ccc(C(C)(C#N)Cc3cc(F)ccc3F)cc2[nH]c1=O` (centres unmarked) [Compound 280], the minimal effective concentration in the assay on HCT116 cells was 0.3 µM. Further, the IC50 at Human PARP-1 enzyme is 50.1 nM.

As to `CCc1cc2ccc(C(C)(C#N)Cc3ccc(F)c(F)c3)cc2[nH]c1=O` (centres unmarked) [Compound 281], the minimal effective concentration in the assay on HCT116 cells is 1 µM. Moreover, at Human PARP-1 enzyme, the IC50 is 39.8 nM.

`CCc1cc2ccc(C(C)(C#N)Cc3cc(C(F)(F)F)ccc3F)cc2[nH]c1=O` (centres unmarked) [Compound 283]: the minimal effective concentration with HCT116 cells is 0.3 µM. For the same compound, the IC50 at Human PARP-1 enzyme was 79.4 nM.

With `CCOc1cccc(CC(C)(C#N)c2ccc3cc(CC)c(=O)[nH]c3c2)c1` (centres unmarked) [Compound 285], the minimal effective concentration in the assay on HCT116 cells was 0.3 µM. Moreover, at Human PARP-1 enzyme, the IC50 was 50.1 nM.

On to `CCc1cc2ccc(C(C)(C#N)Cc3cccc(OC)c3F)cc2[nH]c1=O` (centres unmarked) [Compound 286], for which the minimal effective concentration with HCT116 cells is 1 µM. The IC50 on Human PARP-1 enzyme was 25.1 nM.

Turning to `CCc1cc2ccc(C(C)(C#N)Cc3cc(C(C)C)ccc3OC)cc2[nH]c1=O` (centres unmarked) [Compound 288], the minimal effective concentration in the assay on HCT116 cells was 1 µM. Also, on Human PARP-1 enzyme, the IC50 was 158 nM.

In the case of `CCc1cc2ccc(C(C)(C#N)Cc3cc(OC)c(OC)c(OC)c3)cc2[nH]c1=O` (centres unmarked) [Compound 289], the minimal effective concentration with HCT116 cells was 0.1 µM. Moreover, on Human PARP-1 enzyme, the IC50 was 158 nM.

`CCc1cc2ccc(C(C)(C#N)CN(C)Cc3ccc(C#N)cc3)cc2[nH]c1=O` (centres unmarked) [Compound 300]: the minimal effective concentration with HCT116 cells is 0.3 µM. The IC50 at Human PARP-1 enzyme is 158 nM.

For the compound `CCc1cc2ccc(C(C)(C#N)CNCc3ccc(C#N)cc3)cc2[nH]c1=O` (centres unmarked) [Compound 302], the minimal effective concentration in the assay with HCT116 cells is 1 µM. Further, the IC50 on Human PARP-1 enzyme was 126 nM.

In the case of `Cc1cc2ccc(C(C)(C#N)Cc3cccc(Oc4ccccc4)c3)cc2[nH]c1=O` (centres unmarked) [Compound 305], the minimal effective concentration in the assay on HCT116 cells was 0.3 µM. Also, on Human PARP-1 enzyme, the IC50 is 200 nM.

Take `CCc1cc2ccc(C(C)(C#N)Cc3nc(C#N)cc(OC)n3)cc2[nH]c1=O` (centres unmarked) [Compound 313]: in the assay with HCT116 cells, the minimal effective concentration is 0.3 µM. The IC50 on Human PARP-1 enzyme was 100 nM.

For the compound `CCc1cc2ccc(C(C)(C#N)Cc3cc(N(C)C)nc(C#N)n3)cc2[nH]c1=O` (centres unmarked) [Compound 317], the minimal effective concentration in the assay on HCT116 cells is 1 µM. Further, on Human PARP-1 enzyme, the IC50 is 79.4 nM.

Turning to `CCc1cc2ccc(C(C)(C#N)Cc3nc(C#N)cc(N(C)C)n3)cc2[nH]c1=O` (centres unmarked) [Compound 318], the minimal effective concentration with HCT116 cells is 0.3 µM. In addition, the IC50 on Human PARP-1 enzyme was 79.4 nM.
